System: α4β7 integrin-positive cells
Experiment: Intraperitoneal Delayed Type Hypersensitivity (IP-DTH) Response, ovalbumin challenge
Type: in vivo
Settings: 80 mg/kg, sc, qd × 2; mice, 48 hours after antigen challenge
Excerpt: Intraperitoneal Delayed Type Hypersensitivity (IP-DTH) Response. A Method for Analyzing Effects of Integrin Antagonists In Vivo
Background: Integrin antagonists are meant to interfere with the binding or adhesion of immune cells, such as lymphocytes, monocytes and eosinophils that bear integrin receptors to counter-receptors that exist on endothelial cells in the vasculature. Among those integrin-bearing cells, cells that are positive for α4β7 integrin are found in the mesenteric system and in the gut, and would comprise many of the cells recruited to a peritoneal antigen challenge. One can maximize the number of α4β7 integrin-positive cells recruited by inducing an intraperitoneal delayed type hypersensitivity response to antigen that will recruite antigen-responsive cells from the mesenteric lymph nodes. An inhibitor of α4β7 integrin should prevent the recruitment of these cells to the site of antigen challenge. […]
The cells were stained with fluorochrome-coupled antibody to α4β7 integrin or a primary antibody to α4β7 integrin followed by a secondary fluorochrome-coupled antibody. […] The cells were then transferred to test tubes and maintained at 4° C. until analyzed by flow cytometry to determine numbers of α4β7-postive cells. […]

| Compound | Percent Decrease in recruited α4β7+ cells |
| --- | --- |
| CC(C)(C)CCN1C2CCC(CC2)[C@H]1C(=O)N[C@@H](Cc1ccc(NC(=O)c2c(Cl)cncc2Cl)cc1)C(=O)O [Cpd 16, 3-{4-[(3,5-dichloro-pyridine-4-carbonyl)-amino]-phenyl}-2-{[2-(3,3-dimethyl-butyl)-2-aza-bicyclo[2.2.2]octane-3-carbonyl]-amino}-propionic acid] | 56% |
| O=C(Nc1ccc(CC(NC(=O)C2C3CCC(CC3)N2C(=O)Cc2ccsc2)C(=O)O)cc1)c1c(Cl)cncc1Cl (centres unmarked) [Cpd 3] | 20% |
